{
  "source": "patent US20100021924A1",
  "about": "“Transgenic animal and methods for decreasing cardiac cell death via cardiac-specific sir2alpha overexpression” (priority 2005, published 2010)",
  "key": {"mouse hearts": {"tested_on": "mouse hearts", "format": "in vivo, mice", "set-up": "LV contraction (EF, % FS): dose or concentration left out as unconfirmed", "procedure": "Tg-Sirt2α (n=6) and NTg (n=4) mice from line 40 were treated with ip injection of 10 mg/kg of paraquat (PQ) for 2 weeks. LV ejection fraction (EF, FIG. 8A) and % fractional shortening (% FS, FIG. 8B) of Tg-Sirt2α and NTg mice after PQ treatment is shown. […] Immunoblot analyses of catalase were conducted, using cardiac myocytes transduced with adenovirus vectors harboring constitutively actively FOXO1a (F-CA), dominant negative FOXO1a (F-DN), or Sirt2α. n=3-4. Values are presented as means±SE.\nTo this end, mice were treated for 14 days with paraquat, an inducer of oxidative stress. […] The paraquat-induced increases in oxidative stress were abolished in Tg-Sirt1 line 40 (FIG. 8D). […] Paraquat-induced increases in expression of catalase, an antioxidant, were greater in Tg-Sirt1 than in NTg hearts (FIG. 8E)."}, "caspase-3": {"tested_on": "caspase-3", "assay": "Caspase-3 cleavage in cardiac myocytes", "format": "cell-based, rat", "settings": "treated cardiac myocytes", "procedure": "(§1) Subsequently, it was determined whether cardiac myocyte death by Sir2α inhibition was due to apoptosis. […] Similar results were obtained using TUNEL staining. To examine whether activation of caspase-3 was involved in myocyte death induced by NAM and TSA, the effect of DEVD-CHO, a cell permeable inhibitor of caspase-3, upon myocyte death was examined.\nTo further confirm that inhibition of endogenous Sir2α stimulates cardiac myocyte apoptosis, the effects of a dominant-negative Sir2α were examined. […] The level of cleaved caspase-3 was higher in dominant-negative Sir2α-transduced myocytes than in LacZ-transduced cells.\nImmunoblot Analysis. Nuclear fractions were prepared as described (Tomita, et al. (2003) supra). Whole-cell lysates were obtained using Lysis Buffer A, containing 150 mmol/L NaCl, 50 mmol/L Tris, pH 7.5, 0.1 mmol/L Na3VO4, 1 mmol/L NaF, 0.5 mmol 4-(2-aminoethyl)benzenesulfonyl fluoride hydrochloride, 1% NONIDET P-40, 0.1% sodium dodecyl sulfate, 0.5% deoxycholic acid, 0.5 μg/mL leupeptin, and 0.5 μg/mL aprotinin. For immunoblotting, the antimurine Sir2α antibody (1:10 000) was used."}, "p53 [1]": {"tested_on": "p53", "assay": "p53-Luc reporter gene assay", "format": "cell-based, rat", "settings": "treated myocytes", "experimental": "Transfection and Luciferase Assays. One million cells were transfected with 4 μg of plasmid. The transcriptional activity of p53 was evaluated using p53-Luc (2 pg) containing 15 copies of specific p53 DNA-binding sequence ([sequence]). A plasmid carrying the β-galactosidase gene (SV40-β-gal; 1 μg) was cotransfected. One microgram of expression plasmids pcDNA3.1, pcDNA3.1-Sir2α, or pcDNA 3.1-DN-Sir2α was employed."}, "Histones 3 and 4": {"tested_on": "Histones 3 and 4", "assay": "Histone acetylation in treated cardiac myocytes (immunoblot)", "format": "cell-based, rat"}, "[2]": {"tested_on": "neonatal rat cardiac myocytes", "assay": "Cardiac myocyte morphology and death (shrinkage, detachment, cell size)", "format": "cell-based", "procedure": "A 110 kD protein was detected predominantly in the nuclear fraction. To examine the function of Sir2α in cardiac myocytes, nicotinamide (NAM) and sirtinol, inhibitors of Sir2 (Bitterman, et al. (2002) J. Biol. Chem. 277:45099-45107; Grozinger, et al. (2001) J. Biol. Chem. 276:38837-38843) were employed. Myocytes were also treated with trichostatin A (TSA), an inhibitor of class I and II HDACs (Johnstone (2002) Nat. Rev. Drug Discov. 1:287-299).\nTo examine whether cardiac myocyte apoptosis due to inhibition of Sir2α is mediated by p53, cardiac myocytes were transduced with adenovirus harboring temperature-sensitive dominant-negative p53 and cultured at 39° C. […] The temperature-sensitive dominant-negative p53 construct works as a dominant-negative only at high temperatures (Regula and Kirshenbaum (2001) J. Mol. Cell. Cardiol. 33:1435-1445). Consistent with this, the cell death inhibitory effect of dominant-negative p53 against NAM treatment was not observed at 32° C.\n(§2) Cardiac-specific overexpression of Sir2α was subsequently examined. […] After 7 days, most myocytes were dead in a low-density culture condition. […] It has been shown that pyruvate increases, while lactate decreases, the cellular NAD^+/NADH ratio, thereby positively or negatively regulating the activity of endogenous Sir2α (Fulco, et al. (2003) Mol. Cell 12:51-62).\n(§3) Primary Culture of Neonatal Rat Ventricular Myocytes. Primary cultures of cardiac ventricular myocytes were prepared from 1-day-old Crl: (WI) BR-Wistar rats according to standard methods (Tomita, et al. (2003) Circ. Res. 93:12-22). Myocytes were cultured under serum-free conditions for 48 hours before experiments. Cell size and total protein content were obtained (Tomita, et al. (2003) supra)."}, "cardiac myocytes [3]": {"tested_on": "cardiac myocytes", "assay": "TUNEL staining of cultured cardiac myocytes", "format": "cell-based, rat", "settings": "for TUNEL positive myocytes: compound alone", "experimental": "Subsequently, it was determined whether cardiac myocyte death by Sir2α inhibition was due to apoptosis. […] To examine whether activation of caspase-3 was involved in myocyte death induced by NAM and TSA, the effect of DEVD-CHO, a cell permeable inhibitor of caspase-3, upon myocyte death was examined.\nPrimary Culture of Neonatal Rat Ventricular Myocytes. […] Myocytes were cultured under serum-free conditions for 48 hours before experiments."}, "p53 [4]": {"tested_on": "p53", "assay": "Immunoblot of nuclear fractions with anti-acetylated p53 antibodies", "format": "cell-based, rat", "settings": "for Acetylation of p53 at K320 / Acetylation of p53 at K373/382: nuclear fractions of treated myocytes; for total amount of p53: treated myocytes", "text": "To examine whether the status of acetylation in p53 is affected by NAM or TSA in cardiac myocytes, nuclear fractions were subjected to immunoblot analysis with anti-acetylated p53 antibodies.\nAnti-Sir2α antibody, anti-acetyl-p53 (Lys 320 and Lys 373/382) antibodies and anti-acetyl histone H3 and H4 antibodies were purchased from Upstate. Sirtinol and DEVD-CHO were from CALBIOCHEM, and Trichostatin A (TSA) was from SIGMA."}, "cardiac myocytes [5]": {"tested_on": "cardiac myocytes", "assay": "Cell Death Detection ELISA (cytoplasmic mono- and oligo-nucleosomes)", "format": "cell-based, rat", "settings": "for mono- and oligo-nucleosomes in the cytoplasm (nuclear fragmentation): marker of apoptosis", "procedure": "Myocytes were transduced with an adenoviral vector encoding LacZ (Ad-LacZ) or Sir2α (Ad-Sir2α) with or without serum for 48 hours followed by Cell Death ELISA (FIG. 1A). Alternatively, myocytes were transduced Ad-LacZ or Ad-Sir2α with or without H2O2 (100 μM) for 48 hours followed by Cell Death ELISA (FIG. 1B). […] Mean OD value of control was designated as 1. Each column represents mean from 3 different culture preparations.\nas §1, §2, §3\nAssays for Apoptosis. Histone-associated DNA fragments were quantitated by the Cell Death Detection ELISA (ROCHE; Yamamoto, et al. (2003) J. Clin. Invest. 111:1463-1474)."}, "myocytes": {"tested_on": "myocytes", "settings": "treatment with resveratrol; Pillai et al. 2005; cited from earlier work"}},
  "note": "“Also recorded” adds a separate entry of the source.",
  "data": [
    {"compound": "C[n+]1ccc(-c2cc[n+](C)cc2)cc1", "note": "[Paraquat, paraquat]", "values": [
      {"measurement": "LV contraction (EF, % FS)", "setting": "mouse hearts", "value": "significantly reduced LV contraction"},
      {"measurement": "oxidative stress (8-OHdG staining, MDA content)", "setting": "mouse hearts; NTg mouse hearts, ip 10 mg/kg, 14 days", "value": "significantly increased the extent of oxidative stress"}
    ]},
    {"compound": "NC(=O)c1cccnc1", "note": "[NAM, nicotinamide]", "values": [
      {"measurement": "cleavage of caspase-3", "setting": "caspase-3", "value": "induced cleavage of caspase-3"},
      {"measurement": "activity of p53-Luc", "setting": "p53 [1]", "value": "dose-dependently increased"},
      {"measurement": "acetylation of Histones 3 and 4", "setting": "Histones 3 and 4", "value": "increased acetylation of Histones 3 and 4"},
      {"measurement": "cell shrinkage and detachment, consistent with apoptosis", "setting": "[2]; treatment for 48 hours", "value": "dose-dependent increases in cell shrinkage and detachment"},
      {"measurement": "TUNEL positive myocytes", "setting": "cardiac myocytes [3]", "value": "increases in TUNEL positive myocytes"},
      {"measurement": "Acetylation of p53 at K320", "setting": "p53 [4]", "value": 2.8, "unit": "fold"},
      {"measurement": "Acetylation of p53 at K373/382", "setting": "p53 [4]", "value": 1.8, "unit": "fold"},
      {"measurement": "total amount of p53", "setting": "p53 [4]", "value": "Neither NAM nor TSA significantly changed"},
      {"measurement": "mono- and oligo-nucleosomes in the cytoplasm (nuclear fragmentation)", "setting": "cardiac myocytes [5]", "value": "significantly increased"}
    ]},
    {"compound": "CC(NC(=O)c1ccccc1/N=C/c1c(O)ccc2ccccc12)c1ccccc1", "note": "(stereo not drawn) [sirtinol]", "values": [
      {"measurement": "cleavage of caspase-3", "setting": "caspase-3", "value": "induced cleavage of caspase-3"},
      {"measurement": "mono- and oligo-nucleosomes in the cytoplasm (nuclear fragmentation)", "setting": "cardiac myocytes [5]", "value": "significantly increased"}
    ]},
    {"compound": "DEVD-CHO", "values": [
      {"measurement": "TUNEL positive myocytes caused by NAM", "setting": "cardiac myocytes [3]; effect of caspase-3 inhibitor on NAM-induced death", "value": "prevented increases in TUNEL positive myocytes"},
      {"measurement": "TUNEL-positive myocytes due to TSA", "setting": "cardiac myocytes [3]; effect of caspase-3 inhibitor on TSA-induced death", "value": "did not affect"}
    ]},
    {"compound": "CC(O)C(=O)O", "note": "(stereo not drawn) [lactate]", "values": [
      {"measurement": "cytoplasmic accumulation of mono- and oligo-nucleosomes induced by serum starvation", "setting": "cardiac myocytes [5]; 10 mM, 48 hours (FIG. 1C)", "value": "stimulated it"}
    ]},
    {"compound": "Oc1ccc(C=Cc2cc(O)cc(O)c2)cc1", "note": "[resveratrol]", "values": [
      {"measurement": "myocyte cell death in vitro", "setting": "myocytes", "value": "prevents myocyte cell death"}
    ]},
    {"compound": "CC(/C=C/C(=O)NO)=C\\[C@@H](C)C(=O)c1ccc(N(C)C)cc1", "note": "[TSA, trichostatin A]", "values": [
      {"measurement": "cleavage of caspase-3", "setting": "caspase-3", "value": "did not"},
      {"measurement": "activity of p53-Luc", "setting": "p53 [1]", "value": "failed to activate"},
      {"measurement": "acetylation of Histones 3 and 4", "setting": "Histones 3 and 4", "value": "increased acetylation of Histones 3 and 4"},
      {"measurement": "myocyte death", "setting": "[2]; at high doses", "value": "caused death in some myocytes at high doses"},
      {"measurement": "cell size", "setting": "[2]; treated cardiac myocytes", "value": "modestly increased cell size"},
      {"measurement": "TUNEL positive myocytes", "setting": "cardiac myocytes [3]", "value": "modest increase in TUNEL-positive myocytes"},
      {"measurement": "Acetylation of p53 at K320", "setting": "p53 [4]", "value": "not"},
      {"measurement": "Acetylation of p53 at K373/382", "setting": "p53 [4]", "value": "not"},
      {"measurement": "total amount of p53", "setting": "p53 [4]", "value": "Neither NAM nor TSA significantly changed"},
      {"measurement": "mono- and oligo-nucleosomes in the cytoplasm (nuclear fragmentation)", "setting": "cardiac myocytes [5]", "value": "significantly increased nuclear fragmentation; also recorded: not as potent as NAM"}
    ]}
  ]
}
